The NIST ThermoML archive (doi:10.1016/j.fluid.2005.05.012)

Assay: xn = mol fraction of the nth substance listed
Conditions: 101.33 kPa, Liquid

CC(C)CO [2-methyl-1-propanol] + CN1CCNCC1
x1 = 1
Conditions	mass density [kg/m3]	viscosity [mPa·s]
293.15 K	801.58	3.994
298.15 K	798.09	3.334
303.15 K	794.09	2.794

CN1CCNCC1 [N-methylpiperazine] + CC(C)CO
Conditions	mass density, 293.15 K [kg/m3]	mass density, 298.15 K [kg/m3]	mass density, 303.15 K [kg/m3]	viscosity, 293.15 K [mPa·s]	viscosity, 298.15 K [mPa·s]	viscosity, 303.15 K [mPa·s]
x2 = 0	903.78	899.8	894.55	2.1	1.841	1.624
x2 = 0.0515	901.11	897.16	891.98	2.237	1.941	1.699
x2 = 0.0983	898.38	894.46	889.35	2.361	2.046	1.781
x2 = 0.1506	895.07	891.19	886.16	2.542	2.198	1.914
x2 = 0.2011	891.66	887.82	882.88	2.728	2.354	2.039
x2 = 0.2971	884.72	880.97	876.18	3.084	2.647	2.288
x2 = 0.402	876.51	872.85	868.24	3.469	2.957	2.541
x2 = 0.4982	868.29	864.71	860.24	3.838	3.249	2.785
x2 = 0.6001	858.58	855.07	850.74	4.142	3.504	2.999
x2 = 0.6995	847.72	844.25	840.04	4.382	3.693	3.151
x2 = 0.7978	835.15	831.71	827.6	4.487	3.789	3.211
x2 = 0.8995	819.74	816.28	812.25	4.423	3.708	3.116
